Laboratory results published in patent US20200163897A1, “METHODS OF TREATING LIVER DISEASES ASSOCIATED WITH PORTAL TRACT OR PERIPORTAL INFLAMMATION” (The Regents of the University of California, priority 2017, published 2020).
Blank lines part the entries; values can stand above or below the compound they belong to.

Key:
tissue transglutaminase = target: T1, tissue transglutaminase (Rattus norvegicus, UniProt Q9WVJ6); conditions: via inhibition of tissue transglutaminase; cited from earlier work
T1 construct: host or cells: liver of CCl4-treated animals (in vivo)
T1 sequence (Q9WVJ6 1-686): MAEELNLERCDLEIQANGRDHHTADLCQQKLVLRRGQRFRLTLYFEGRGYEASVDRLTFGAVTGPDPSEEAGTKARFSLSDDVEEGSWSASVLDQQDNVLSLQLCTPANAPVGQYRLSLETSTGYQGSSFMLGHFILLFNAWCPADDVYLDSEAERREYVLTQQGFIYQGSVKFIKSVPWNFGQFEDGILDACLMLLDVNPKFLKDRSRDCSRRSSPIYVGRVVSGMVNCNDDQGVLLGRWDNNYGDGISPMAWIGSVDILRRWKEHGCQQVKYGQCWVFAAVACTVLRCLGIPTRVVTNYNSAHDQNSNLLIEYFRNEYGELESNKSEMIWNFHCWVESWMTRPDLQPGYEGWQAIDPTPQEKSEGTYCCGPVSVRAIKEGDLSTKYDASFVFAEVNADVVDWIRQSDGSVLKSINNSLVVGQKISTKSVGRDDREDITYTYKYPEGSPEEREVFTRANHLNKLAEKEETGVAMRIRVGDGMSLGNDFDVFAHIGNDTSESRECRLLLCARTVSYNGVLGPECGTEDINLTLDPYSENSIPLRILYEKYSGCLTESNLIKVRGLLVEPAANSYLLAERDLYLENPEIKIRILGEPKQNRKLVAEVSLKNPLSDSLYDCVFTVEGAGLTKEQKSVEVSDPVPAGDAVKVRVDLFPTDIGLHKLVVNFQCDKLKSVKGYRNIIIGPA

[1] = system: obese individuals with NASH; conditions: 4-12 weeks, no reported change in body mass index; cited from earlier work
leukocyte cystine = conditions: delivery to the small intestine; cited from earlier work
in vivo = assay: in vivo; design: species or system rats; conditions: rat, 20 mg/kg
From the text: Samples were taken from the portal vein (PV) and jugular vena cava (JVC) in rats that were either pre-treated with or naïve to cysteamine therapy.
The portal vein delivers blood, and therefore drug, directly to the liver where it diffuses into the periportal region. The concentration of drug in the periportal region is therefore at a maximum level and is higher than the drug concentration in the hepatic lobular region (which drains into the hepatic central veins and then into the JVC). This is possible because as blood, and therefore drug, traverses through the hepatic lobule away from the portal vein its contents will undergo some degree of first-pass metabolism. It is postulated here, that patients with type 2 pediatric NASH, receiving a greater drug exposure at the site of maximal disease (i.e., periportal region; recall Type 2 NASH is characterized by portal inflammation), are more likely to respond to drug therapy than children with type 1 NASH.

children with NASH = conditions: cited from earlier work
[2] = system: acetaminophen-induced hepatocellular injury; conditions: mice and humans; cited from earlier work
[3] = system: obese children who had steatosis; conditions: after vitamin E 400-1000 IU/day for 4-10 months, cited from earlier work

Compound: NCCSSCCN [Cystamine]
liver fibrosis induced by carbon tetrachloride (tissue transglutaminase): ameliorate liver fibrosis

Compound: CC(=O)N[C@@H](CS)C(=O)O [N-acetylcysteine]
aminotransferase levels and gamma-GT [1]: improvement

Tmax (in vivo): 5 to 10 min
Compound: NCCS [cysteamine]
decrease in leukocyte cystine, time after treatment (leukocyte cystine): within an hour | blood liver inflammation markers (ALT, AST, GGT) (children with NASH; children with NASH, 6 and 12 months treatment): statistically significant improvement | primary endpoint of improved histology (children with NASH; placebo controlled 12 month study group): not achieved | chance of histological improvement compared with the placebo group (children with NASH; post-hoc analysis, children <65 kg body weight, placebo controlled 12 month study): 4 fold | prevention of acetaminophen-induced hepatocellular injury [2]: effective

Compound: vitamin E
mean AST levels ([3]; decreased from 104±61 IU/L, P<0.002): 33±11 IU/L | mean ALT levels ([3]; decreased from 175±106 IU/L, P<0.01): 40±26 IU/L
